Source: patent US20200368247A1, “CENICRIVIROC FOR THE TREATMENT OF FIBROSIS” (Tobira Therapeutics, Inc., priority 2014, published 2020)
Each block holds one molecule with its values, some of them ahead of it.

Experiments:
CCR5 [1] = target: T1, CCR5 (Homo sapiens, UniProt P51681); experiment: Inhibition of ligand binding to CCR5-expressing CHO cells
HIV-1 BaL = experiment: PM-1 cells exposed to HIV-1 BaL: virus in culture fluids (qRT-PCR, p24) and intracellular strong-stop DNA; type: cell-based; conditions: 4 hrs
Text: Cells. PM-1 cells that express CD4, CCR5, and CXCR4 were maintained in RPMI-1640 medium containing 10% fetal bovine serum (R10 medium) at 37 C, 5% CO2. 293T cells used for transfection were maintained in DMEM at 10% FBS, L-glutamine, and antibiotics (D10 medium) at 37 C, 5% CO2. Virus Stocks. HIV-1 BaL virus was produced by transfecting 293T cells with the plasmid pWT/BaL. Lipofectamine 2000 was used as a transfection agent. Culture supernatants were collected at 48 hrs post-transfection, filtered through a 0.45 μm pore filter, and treated with 50 units of benzonase per ml of virus stock for 20 minutes at 37 C to remove contaminating plasmid DNA. […]
Both drugs were incubated with PM-1 cells for 1 hr at 37 C prior to the addition of virus. […] Viral adsorption was measured in the no-drug controls, whereby 500 ng of p24 Ag of HIV-1 Bal were added per 5×10^5 PM-1 cells that were pre-incubated at 37 C for 1 hr in the absence of drug treatment. […] Supernatant viral loads were measured using quantitative real-time reverse transcription PCR (qRT-PCR) with the primers US1SSF (5′-ΔΔ[…]-3′), US1SSR (5′-[…]-3′) and US1SS probe (5′-(FAM) […]) and the Invitrogen qRT-PCR Supermix Kit. […] RNA copy number was quantified by use of 10-fold serial dilutions of pBaL/wt to generate standard curves for each assay and calibrated against samples with known copy numbers from previous studies. […]

CCR5 [2] = target: T1, CCR5; experiment: CCR5 receptor occupancy / RANTES-induced CCR5 internalization in PBMCs, flow cytometry; type: cell-based; conditions: at saturating concentration
Description: (§1) The capacity of each drug to inhibit CCR5 or CCR2 internalization was evaluated. Cell-surface expression of CCR5 and CCR2 was assessed by flow cytometry, and fluorescence values were converted into molecules of equivalent soluble fluorescence (MESF).

CCR2 = target: T2, CCR2 (Homo sapiens, UniProt P41597); experiment: CCR2 receptor occupancy / MCP-1-induced CCR2 internalization in PBMCs, flow cytometry; type: cell-based
T2 construct: endogenous in cells; host or cells: monocytes within PBMCs from HIV+ and HIV- subjects
T2 sequence (P41597 1-360 isoform P41597-2): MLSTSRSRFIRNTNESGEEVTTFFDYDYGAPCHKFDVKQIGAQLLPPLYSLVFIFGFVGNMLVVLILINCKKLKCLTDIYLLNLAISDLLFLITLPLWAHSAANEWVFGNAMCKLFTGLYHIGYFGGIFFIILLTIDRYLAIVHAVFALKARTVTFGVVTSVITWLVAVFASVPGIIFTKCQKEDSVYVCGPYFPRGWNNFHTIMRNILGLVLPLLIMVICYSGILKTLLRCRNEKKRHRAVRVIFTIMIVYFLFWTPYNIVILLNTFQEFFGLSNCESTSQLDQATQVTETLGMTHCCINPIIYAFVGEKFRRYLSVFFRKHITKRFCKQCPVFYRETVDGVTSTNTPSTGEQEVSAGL
Description: as §1

T1 sequence (P51681 whole entry): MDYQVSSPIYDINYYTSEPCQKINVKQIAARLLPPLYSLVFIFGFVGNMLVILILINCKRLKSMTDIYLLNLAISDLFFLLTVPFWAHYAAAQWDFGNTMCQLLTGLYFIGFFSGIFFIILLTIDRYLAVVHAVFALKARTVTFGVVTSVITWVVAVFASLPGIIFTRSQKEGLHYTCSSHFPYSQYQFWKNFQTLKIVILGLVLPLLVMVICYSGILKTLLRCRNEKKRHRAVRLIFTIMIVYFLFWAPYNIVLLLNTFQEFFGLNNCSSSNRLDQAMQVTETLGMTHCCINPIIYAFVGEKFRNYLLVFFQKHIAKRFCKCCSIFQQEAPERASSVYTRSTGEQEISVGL

IC50 relative to the IC50 of CVC (CCR5 [1]; RANTES binding to CCR5-expressing cells): approximately 2 fold
Molecule: CCCCOCCOc1ccc(-c2ccc3c(c2)C=C(C(=O)Nc2ccc(S(=O)(=O)Cc4cncn4CCC)cc2)CCCN3CC(C)C)cc1 [M-I]

Molecule: Maraviroc [MVC]
p24 antigen level in culture fluids (HIV-1 BaL; CVC 20 nM, MVC 50 nM, baseline 506): 520 ng/mL
relative intracellular strong-stop HIV DNA level compared to no drug control (HIV-1 BaL; PM-1 cells): 0.02
CCR5 receptor occupancy (CCR5 [2]; CD4+ T cells): ~86%
CCR5 receptor occupancy (CCR5 [2]; CD8+ T cells): ~87%

concentration required to reach >80% receptor occupancy (CCR2; CCR2, average): 18 nM
CCR2 cell-surface expression (CCR2; in the absence of MCP-1, monocytes): slightly increased
Molecule: CSc1ccc(C(=O)N[C@@H]2CCCC[C@@H]2NC(=O)CNC(=O)c2cc(C(F)(F)F)ccc2NC(=O)NC(C)C)cc1 [BMS-22, reference compound]

IC50, inhibition of binding of RANTES to CCR5-expressing cells (CCR5 [1]; CHO cells): no effect
Molecule: CCCCOCCOc1ccc(-c2ccc3c(c2)C=C(C(=O)Nc2ccc(SC)cc2)CCCN3CC(C)C)cc1 [M-II]
